pIC50: −log10 of the molar value.

The experiment deals with T1, Pol theta polymerase domain (residues 1819-2590) (Homo sapiens, UniProt O75417).
T1 construct: Pol theta polymerase domain (residues 1819-2590) at a final concentration of 4 nM
T1 sequence (O75417 1819-2590): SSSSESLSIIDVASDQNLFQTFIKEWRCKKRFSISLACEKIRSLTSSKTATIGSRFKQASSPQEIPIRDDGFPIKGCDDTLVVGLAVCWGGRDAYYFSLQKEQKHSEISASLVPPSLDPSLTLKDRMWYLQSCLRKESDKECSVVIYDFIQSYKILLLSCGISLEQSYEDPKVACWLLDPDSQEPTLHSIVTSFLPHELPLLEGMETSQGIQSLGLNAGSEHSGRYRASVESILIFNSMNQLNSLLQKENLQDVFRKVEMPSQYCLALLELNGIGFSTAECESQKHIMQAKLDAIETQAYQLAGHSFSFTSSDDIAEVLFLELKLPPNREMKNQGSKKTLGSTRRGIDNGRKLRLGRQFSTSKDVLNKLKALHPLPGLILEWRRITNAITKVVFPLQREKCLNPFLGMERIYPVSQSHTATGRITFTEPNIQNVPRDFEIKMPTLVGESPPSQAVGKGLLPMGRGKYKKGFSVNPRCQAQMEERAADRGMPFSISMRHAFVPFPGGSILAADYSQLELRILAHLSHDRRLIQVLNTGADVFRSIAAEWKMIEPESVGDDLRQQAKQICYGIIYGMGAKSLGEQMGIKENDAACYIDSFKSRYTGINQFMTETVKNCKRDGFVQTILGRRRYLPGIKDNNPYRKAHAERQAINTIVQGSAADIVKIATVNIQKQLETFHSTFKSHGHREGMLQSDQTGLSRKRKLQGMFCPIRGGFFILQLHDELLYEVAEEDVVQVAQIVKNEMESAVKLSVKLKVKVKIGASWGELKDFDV
The experiment is described as follows: Pol theta polymerase primer extension assay (molecular beacon fluorescence). Conditions: 4 nM enzyme, 15 min pre-incubation, fluorescence change over 30 min. Type of experiment: biochemical. How it is done:
The ability of the compounds of Formula (I) to inhibit polymerase activity of Pol theta was determined using the assay described below.
A mixture of 20 uL of Pol theta polymerase domain (residues 1819-2590) at a final concentration of 4 nM in assay buffer (20 m M TRIS, pH 7.80, 50 mM KCl, 10 mM MgCl2, 1 mM DTT, 0.01% BSA, 0.01% Tween20) was added to test compounds (11-point dilution series of test compounds) except the low control wells without test compounds. The above enzyme and test compound inhibitor mixture was then incubated at room temperature for 15 min. An equal volume (20 μl) of dNTP substrate mix (48 μM) and primed molecular beacon DNA (obtained by annealing template SEQ ID NO 2: (5′-CCTTCCTCCCGTGTCTTG-TACCTTCCCGTCA-GGAGGAAGG-3′) with 5′-TAMRA and 3′-BHQ and primer DNA (SEQ ID NO 3: 5′-GACGGGAAGG-3′) in 10 mM Tris-HCl pH 8.0, 100 mM NaCl buffer) (96 nM) in assay buffer was added to all the test wells. The inhibition activity was measured by monitoring the fluorescence change over 30 min at 535 nm upon excitation at 485 nm. The high control (DMSO with enzyme) with high fluorescence intensity represents no inhibition of polymerase reaction while the low control (DMSO with buffer) with low fluorescence intensity represents full inhibition of polymerase activity. Slope of the reaction progress curves were used to calculate the rate of polymerization. The rates were used to determine the percent inhibition using a four-parameter inhibition model to generate IC50, Hill slope and max inhibition.
One may read the pIC50 as the negative decadic logarithm of the IC50, by convention in mol/L. A higher pIC50 goes with a small IC50. In the case of “2-([[1-(4-fluorophenyl)-4- (trifluoromethyl)imidazol-2- yl]methyl]amino)-4,6- bis(trifluoromethyl)benzonitrile [compound 9]”, the pIC50 is over 6.70.

Molecule `Cc1nc(OCc2nccn2-c2ccccc2)c(C#N)c(C)c1Cl` [compound 1, 5-chloro-4,6-dimethyl-2-((1-phenyl-1H-imidazol-2-yl)methoxy)-nicotinonitrile] had a pIC50 of 6.00 to 6.30.

`Cc1nc(NCc2nccn2-c2ccccc2)c(C#N)c(C)c1Cl` [compound 2, 5-chloro-4,6-dimethyl-2-((1-phenyl-1H-imidazol-2-yl)methylamino)-nicotinonitrile] had a negative logarithm of the IC50 (pIC50) of over 6.70.

`Cc1nc(NCc2nccn2-c2ccc(F)cc2)c(C#N)c(C)c1Cl` [compound 3, 5-chloro-2-(((1-(4-fluorophenyl)-1H-imidazol-2-yl)methyl)amino)-4,6-dimethyl-nicotinonitrile] gave a pIC50 of over 6.70.

Molecule `Fc1ccc(-n2ccnc2CNc2cc(Cl)cc(C(F)(F)F)c2)cc1` [compound 4, 3-chloro-N-((1-(4-fluorophenyl)-1H-imidazol-2-yl)methyl)-5-(trifluoromethyl)-benzenamine] had a pIC50 of over 6.70.

Consider `N#Cc1c(C(F)(F)F)cc(C(F)(F)F)nc1NCc1nccn1-c1ccc(F)cc1` [compound 5, 2-([[1-(4-fluorophenyl)-1H-imidazol-2-yl]methyl]amino)-4,6-bis(trifluoromethyl)-pyridine-3-carbonitrile], for which the pIC50 was over 6.70.

As to `COc1ccc(-n2ccnc2CNc2nc(C(F)(F)F)cc(C(F)(F)F)c2C#N)cc1` [compound 6, 2-([[1-(4-methoxyphenyl)-1H-imidazol-2-yl]methyl]amino)-4,6-bis(trifluoromethyl)-pyridine-3-carbonitrile], the negative-log IC50 (pIC50) was over 6.70.

With `N#Cc1c(C(F)(F)F)cc(C(F)(F)F)nc1NCc1nccn1Cc1ccc(F)cc1` [compound 7, 2-[([1-[(4-fluorophenyl)methyl]-1H-imidazol-2-yl]methyl)amino]-4,6-bis-(trifluoromethyl)pyridine-3-carbonitrile], the pIC50 is over 6.70.

The molecule `N#Cc1c(C(F)(F)F)cc(C(F)(F)F)nc1OCc1nccn1-c1ccc(F)cc1` [compound 8, 2-[[1-(4-fluorophenyl)-1H-imidazol-2-yl]methoxy]-4,6-bis(trifluoromethyl)-pyridine-3-carbonitrile] had a pIC50 of over 6.70.

Take `N#Cc1c(C(F)(F)F)cc(C(F)(F)F)nc1NCc1nccnc1-c1ccc(F)cc1` [compound 10, 2-((3-(4-fluorophenyl)pyrazin-2-yl)methylamino)-4,6-bis(trifluoromethyl)-nicotinonitrile]: the negative logarithm of the IC50 (pIC50) is over 6.70.

Molecule `N#Cc1c(C(F)(F)F)cc(C(F)(F)F)nc1NCc1ncncc1-c1ccc(F)cc1` [compound 11, 2-((5-(4-fluorophenyl)pyrimidin-4-yl)methylamino)-4,6-bis(trifluoromethyl)-nicotinonitrile] had a pIC50 of over 6.70.

The molecule `N#Cc1c(C(F)(F)F)cc(C(F)(F)F)nc1NCc1nncn1-c1ccc(F)cc1` [compound 12, 2-((4-(4-fluorophenyl)-4H-1,2,4-triazol-3-yl)methylamino)-4,6-bis(trifluoromethyl)-nicotinonitrile] had a pIC50 of over 6.70.

`CC(Nc1nc(C(F)(F)F)cc(C(F)(F)F)c1C#N)c1nccn1-c1ccc(F)cc1` (stereo not drawn) [compound 13, 2-([1-[1-(4-fluorophenyl)imidazol-2-yl]ethyl]amino)-4,6-bis(trifluoromethyl)pyridine-3-carbonitrile] had a pIC50 of over 6.70.

Molecule `Cn1cc(-c2ccc(F)cc2)c(CNc2nc(C(F)(F)F)cc(C(F)(F)F)c2C#N)n1` [compound 14, 2-(((4-(4-fluorophenyl)-1-methyl-1H-pyrazol-3-yl)methyl)amino)-4,6-bis(trifluoromethyl)nicotinonitrile] showed a pIC50 of 5.00 to 6.00.

`N#Cc1c(C(F)(F)F)cc(C(F)(F)F)nc1NCc1n[nH]cc1-c1ccc(F)cc1` [compound 15, 2-(((4-(4-fluorophenyl)-1H-pyrazol-3-yl)methyl)amino)-4,6-bis(trifluoromethyl)-nicotinonitrile] showed a pIC50 of 5.00 to 6.00.

Consider `N#Cc1c(C(F)(F)F)cc(C(F)(F)F)nc1NCc1ncccc1-c1ccc(F)cc1` [compound 16, 2-(((3-(4-fluorophenyl)pyridin-2-yl)methyl)amino)-4,6-bis(trifluoromethyl)-nicotinonitrile], for which the negative-log IC50 (pIC50) was over 6.70.

`N#Cc1c(C(F)(F)F)cc(C(F)(F)F)nc1NCc1nccnc1-c1ccc(F)cc1Cl` [compound 17, 2-([[3-(2-chloro-4-fluorophenyl)-pyrazin-2-yl]methyl]amino)-4,6-bis(trifluoromethyl)pyridine-3-carbonitrile] had a pIC50 of 6.00 to 6.30.

The molecule `N#Cc1c(C(F)(F)F)cc(C(F)(F)F)nc1NCc1ncncc1-c1ccncc1` [compound 18, 2-([[5-(pyridin-4-yl)pyrimidin-4-yl]methyl]amino)-4,6-bis(trifluoro-methyl)pyridine-3-carbonitrile] showed a pIC50 of 5.00 to 6.00.

As for `N#Cc1c(C(F)(F)F)cc(C(F)(F)F)nc1OCc1ncccc1-c1ccc(F)cc1` [compound 19, 2-[[3-(4-fluorophenyl)pyridin-2-yl]methoxy]-4,6-bis(trifluoromethyl)pyridine-3-carbonitrile], the pIC50 was over 6.70.

Take `Cc1ccc(-c2ccc(F)cc2)c(CNc2nc(C(F)(F)F)cc(C(F)(F)F)c2C#N)n1` [compound 20, 2-([[3-(4-fluorophenyl)-6-methylpyridin-2-yl]methyl]amino)-4,6-bis(trifluoromethyl)pyridine-3-carbonitrile]: the pIC50 was over 6.70.

Molecule `N#Cc1c(C(F)(F)F)cc(C(F)(F)F)nc1NCc1nccnc1-c1ccccn1` [compound 21, 2-(((3-(pyridin-2-yl)pyrazin-2-yl)methyl)amino)-4,6-bis(trifluoromethyl)-nicotinonitrile] had a pIC50 of 6.30 to 6.70.

Regarding `N#Cc1c(C(F)(F)F)cc(C(F)(F)F)nc1NCc1ncccc1-c1ccccn1` [compound 22], the pIC50 is over 6.70.

The molecule `N#Cc1c(C(F)(F)F)cc(C(F)(F)F)nc1NCc1nc(O)ccc1-c1ccc(F)cc1` [compound 23, 2-([[3-(4-fluorophenyl)-6-oxo-1H-pyridin-2-yl]methyl]amino)-4,6-bis(trifluoro-methyl)pyridine-3-carbonitrile] showed a negative logarithm of the IC50 (pIC50) of over 6.70.

In turn, `N#Cc1ccc(-c2ccc(F)cc2)c(CNc2nc(C(F)(F)F)cc(C(F)(F)F)c2C#N)n1` [compound 24, 6-([[3-cyano-4,6-bis(trifluoromethyl)pyridin-2-yl]amino]methyl)-5-(4-fluorophenyl)pyridine-2-carbonitrile] gave a pIC50 of over 6.70.

For `N#Cc1c(C(F)(F)F)cc(C(F)(F)F)nc1NCc1ncccc1-c1ccc(Br)cc1` [compound 25, 2-([[3-(4-bromophenyl)pyridin-2-yl]methyl]amino)-4,6-bis(trifluoromethyl)-pyridine-3-carbonitrile], the pIC50 was over 6.70.

`N#Cc1c(C(F)(F)F)cc(C(F)(F)F)nc1NCc1ncnn1-c1ccc(F)cc1` [compound 26, 2-(((1-(4-fluorophenyl)-1H-1,2,4-triazol-5-yl)methyl)amino)-4,6-bis(trifluoro-methyl)nicotinonitrile] showed a pIC50 of 6.30 to 6.70.

`COc1ccc(-c2ccc(F)cc2)c(CNc2nc(C(F)(F)F)cc(C(F)(F)F)c2C#N)n1` [compound 27, 2-([[3-(4-fluorophenyl)-6-methoxypyridin-2-yl]methyl]amino)-4,6-bis(trifluoromethyl)pyridine-3-carbonitrile] showed a pIC50 of 5.00 to 6.00.

For the origin of these results see patent US20210387968A1, “HETEROARYLMETHYLENE DERIVATIVES AS DNA POLYMERASE THETA INHIBITORS” (IDEAYA Biosciences, Inc., priority 2019, published 2021).
